# Experimental data taken from patent US8906928B2, “Substituted pyrazolo-pyrrolo-pyridine-dione compounds” (ArQule, Inc., priority 2009, dated 2014).
# What was measured:
# Type in all cases: cell-based
# [1] = system: DLD-1; assay: MTS assay (cell growth inhibition), DLD-1; conditions: DLD-1 cells, 72 hours incubation with test compound; concentration not given
# Procedure: (§1) Cells were maintained at 37° C., 5% CO2 in DMEM media supplemented with 1% fetal bovine serum, penicillin/streptomycin and fungizone (Invitrogen). Cells were seeded into 96-well tissue culture plates at 3000 per well and cultured at 37° C. for 18 hours. Test compounds were dissolved and diluted to 300× in DMSO then diluted 1:40 in DMEM. Cells were incubated with test compounds for 72 hours followed by incubation with tetrazolium compound (3-(4,5-dimethylthiazol-2-yl)-5-(3-carboxymethoxyphenyl)-2-(4-sulfophenyl)-2H-tetrazolium, inner salt; MTS) and the electron coupling reagent, phenazine methosulfate (PMS) for 4 hours. […] The ability of compounds to inhibit cell growth in this assay is correlated with the reduction of dehydrogenase enzyme activity found in metabolically active cells. The measurement of the absorbance of the formazan was assessed using an ENVISION™ (Perkin Elmer) microplate reader at 492 nm. The calculated IC50 value is the concentration of the test compound that causes a 50% decrease in the absorbance.
# [2] = system: Kato III; assay: MTS assay (cell growth inhibition), Kato III; conditions: Kato III cells, 72 hours incubation with test compound; concentration not given
# Procedure: as §1
# [3] = system: MDA-MB; assay: MTS assay (cell growth inhibition), MDA-MB; conditions: MDA-MB cells, 72 hours incubation with test compound; concentration not given
# Procedure: as §1
# [4] = system: NCI-H1299; assay: MTS assay (cell growth inhibition), NCI-H1299; conditions: NCI-H1299 cells, 72 hours incubation with test compound; concentration not given
# Procedure: as §1
# [5] = system: PACA-2; assay: MTS assay (cell growth inhibition), PACA-2; conditions: PACA-2 cells, 72 hours incubation with test compound; concentration not given
# Procedure: as §1
# [6] = system: PC-3; assay: MTS assay (cell growth inhibition), PC-3; conditions: PC-3 cells, 72 hours incubation with test compound; concentration not given
# Procedure: as §1
SMILES,MTS CELL KILL DATA (% INHIBITION) DLD-1 [1],MTS CELL KILL DATA (% INHIBITION) Kato III [2],MTS CELL KILL DATA (% INHIBITION) MDA-MB [3],MTS CELL KILL DATA (% INHIBITION) NCI-H1299 [4],MTS CELL KILL DATA (% INHIBITION) PACA-2 [5],MTS CELL KILL DATA (% INHIBITION) PC-3 [6]
"O=C1c2cnc3[nH]ncc3c2C(=O)N1Cc1ccncc1 [Example 43, 7-(pyridin-4-ylmethyl)pyrazolo[3,4-b]pyrrolo[3,4-d]pyridine-6,8(3H,7H)-dione]",C (C = <50% INHIBITION),C (C = <50% INHIBITION),A (A = 80-100% INHIBITION),C (C = <50% INHIBITION),A (A = 80-100% INHIBITION),A (A = 80-100% INHIBITION)
"CCCCN(CCCC)CCN1C(=O)c2cnc3[nH]ncc3c2C1=O [Example 18, 7-[2-(dibutylamino)ethyl]pyrazolo[3,4-b]pyrrolo[3,4-d]pyridine-6,8(3H,7H)-dione]",C (C = <50% INHIBITION),C (C = <50% INHIBITION),A (A = 80-100% INHIBITION),C (C = <50% INHIBITION),C (C = <50% INHIBITION),A (A = 80-100% INHIBITION)
"O=C1c2cnc3[nH]ncc3c2C(=O)N1CC1CCC1 [Example 76, 7-(cyclobutylmethyl)pyrazolo[3,4-b]pyrrolo[3,4-d]pyridine-6,8(3H,7H)-dione]",C (C = <50% INHIBITION),C (C = <50% INHIBITION),C (C = <50% INHIBITION),C (C = <50% INHIBITION),C (C = <50% INHIBITION),C (C = <50% INHIBITION)
"COc1cccc(CN2C(=O)c3cnc4[nH]ncc4c3C2=O)c1OC [Example 92, 7-(2,3-dimethoxybenzyl)pyrazolo[3,4-b]pyrrolo[3,4-d]pyridine-6,8(3H,7H)-dione]",C (C = <50% INHIBITION),C (C = <50% INHIBITION),C (C = <50% INHIBITION),C (C = <50% INHIBITION),C (C = <50% INHIBITION),C (C = <50% INHIBITION)
"CC(C)c1ccc(CN2C(=O)c3cnc4[nH]ncc4c3C2=O)cc1 [Example 14, 7-(4-isopropylbenzyl)pyrazolo[3,4-b]pyrrolo[3,4-d]pyridine-6,8(3H,7H)-dione]",C (C = <50% INHIBITION),B (B = 50-79% INHIBITION),A (A = 80-100% INHIBITION),C (C = <50% INHIBITION),C (C = <50% INHIBITION),A (A = 80-100% INHIBITION)
"O=C1c2cnc3[nH]ncc3c2C(=O)N1Cc1cccc(Br)c1 [Example 104, 7-(3-bromobenzyl)pyrazolo[3,4-b]pyrrolo[3,4-d]pyridine-6,8(3H ,7H)-dione]",A (A = 80-100% INHIBITION),A (A = 80-100% INHIBITION),A (A = 80-100% INHIBITION),A (A = 80-100% INHIBITION),A (A = 80-100% INHIBITION),A (A = 80-100% INHIBITION)
"O=C1c2cnc3[nH]nc(-c4cncnc4)c3c2C(=O)N1CCc1ccccc1 [Example 151, 7-(2-phenylethyl)-1-pyrimidin-5-ylpyrazolo[3,4-b]pyrrolo[3,4-d]pyridine-6,8(3H,7H)-dione]",A (A = 80-100% INHIBITION),A (A = 80-100% INHIBITION),C (C = <50% INHIBITION),C (C = <50% INHIBITION),A (A = 80-100% INHIBITION),B (B = 50-79% INHIBITION)
"O=C1NCCN1CCN1C(=O)c2cnc3[nH]ncc3c2C1=O [Example 6, 7-[2-(2-oxoimidazolidin-1-yl)ethyl]pyrazolo[3,4-b]pyrrolo[3,4-d]pyridine-6,8(3H,7H)-dione]",C (C = <50% INHIBITION),A (A = 80-100% INHIBITION),A (A = 80-100% INHIBITION),A (A = 80-100% INHIBITION),C (C = <50% INHIBITION),A (A = 80-100% INHIBITION)
"O=C1c2cnc3[nH]nc(-c4ccc(F)c(F)c4)c3c2C(=O)N1CCc1ccccc1 [Example 162, 1-(3,4-difluorophenyl)-7-(2-phenylethyl)pyrazolo[3,4-b]pyrrolo[3,4-d]pyridine-6,8(3H,7H)-dione]",C (C = <50% INHIBITION),C (C = <50% INHIBITION),C (C = <50% INHIBITION),C (C = <50% INHIBITION),B (B = 50-79% INHIBITION),C (C = <50% INHIBITION)
"CC(C)(C)c1ccc(CN2C(=O)c3cnc4[nH]ncc4c3C2=O)cc1 [Example 47, 7-(4-tert-butylbenzyl)pyrazolo[3,4-b]pyrrolo[3,4-d]pyridine-6,8(3H,7H)-dione,]",C (C = <50% INHIBITION),C (C = <50% INHIBITION),C (C = <50% INHIBITION),C (C = <50% INHIBITION),C (C = <50% INHIBITION),C (C = <50% INHIBITION)
"O=C1c2cnc3[nH]ncc3c2C(=O)N1CCc1cccc2ccccc12 [Example 77, 7-[2-(1-naphthyl)ethyl]pyrazolo[3,4-b]pyrrolo[3,4-d]pyridine-6,8(3H,7H)-dione]",A (A = 80-100% INHIBITION),A (A = 80-100% INHIBITION),A (A = 80-100% INHIBITION),A (A = 80-100% INHIBITION),A (A = 80-100% INHIBITION),A (A = 80-100% INHIBITION)
"O=C1c2cnc3[nH]ncc3c2C(=O)N1CC1CCCO1 (stereo not drawn) [Example 107, 7-(tetrahydrofuran-2-ylmethyl)pyrazolo[3,4-b]pyrrolo[3,4-d]pyridine-6,8(3H,7H)-dione]",C (C = <50% INHIBITION),C (C = <50% INHIBITION),B (B = 50-79% INHIBITION),C (C = <50% INHIBITION),C (C = <50% INHIBITION),B (B = 50-79% INHIBITION)
"CCCC(CCC)CN1C(=O)c2cnc3[nH]ncc3c2C1=O [Example 63, 7-(2-propylpentyl)pyrazolo[3,4-b]pyrrolo[3,4-d]pyridine-6,8(3H,7H)-dione]",C (C = <50% INHIBITION),C (C = <50% INHIBITION),A (A = 80-100% INHIBITION),C (C = <50% INHIBITION),A (A = 80-100% INHIBITION),A (A = 80-100% INHIBITION)
"CSc1cccc(-c2n[nH]c3ncc4c(c23)C(=O)N(CCc2ccccc2)C4=O)c1 [Example 159, 1-[3-(methylsulfanyl)phenyl]-7-(2-phenylethyl)pyrazolo[3,4-b]pyrrolo[3,4-d]pyridine-6,8(3H,7H)-dione]",A (A = 80-100% INHIBITION),A (A = 80-100% INHIBITION),A (A = 80-100% INHIBITION),A (A = 80-100% INHIBITION),A (A = 80-100% INHIBITION),A (A = 80-100% INHIBITION)
"CC(CCN1C(=O)c2cnc3[nH]ncc3c2C1=O)CC(C)(C)C (stereo not drawn) [Example 117, 7-(3,5,5-trimethylhexyl)pyrazolo[3,4-b]pyrrolo[3,4-d]pyridine-6,8(3H,7H)-dione]",C (C = <50% INHIBITION),C (C = <50% INHIBITION),A (A = 80-100% INHIBITION),C (C = <50% INHIBITION),C (C = <50% INHIBITION),A (A = 80-100% INHIBITION)
"O=C1c2cnc3[nH]ncc3c2C(=O)N1Cc1ccc(Cl)c(C(F)(F)F)c1 [Example 136, 7-[4-chloro-3-(trifluoromethyl)benzyl]pyrazolo[3,4-b]pyrrolo[3,4-d]pyridine-6,8(3H,7H)-dione]",C (C = <50% INHIBITION),C (C = <50% INHIBITION),C (C = <50% INHIBITION),C (C = <50% INHIBITION),C (C = <50% INHIBITION),C (C = <50% INHIBITION)
